Where “and” joins values, the source holds several entries; their conditions need not be identical. Identical values can stand only once. Each block holds one compound with its values, some of them ahead of it.
What was measured:
[1] = test system: 601 DNA; experiment: EMSA with 601 DNA; type: binding; conditions: for binding to 601 DNA: 147 bp 601 DNA 5 pmol, pH 7.5, 150 mM NaCl, 0.5 h on ice
Procedure: EMSA experiments were performed essentially as described. In brief, increasing amounts of WT or mutant CW or ATPaseCW cassette of MORC4 were incubated with 147 bp 601 DNA (5 pmol) or 50 ng of O’RangeRuler 5 bp ladder (Thermo Scientific) in a DNA-binding buffer containing 20 mM Tris-HCl (pH 7.5), 150 mM NaCl, 2.5 mM MgCl2, and 2 mM DTT for 0.5 h on ice. The reaction mixtures were loaded on 5% native polyacrylamide gels, and electrophoresis was performed in 0.2× Tris-borate-EDTA (TBE) buffer at 100 V for 1.2 h on ice. Gels were stained with SYBR Gold (Invitrogen).

[2] = target: T1, MORC4 CW domain (Homo sapiens, UniProt Q8TE76); experiment: Tryptophan fluorescence binding of histone H3 peptides to MORC4 CW; conditions: for Kd: tryptophan fluorescence, 25 °C, pH 6.8, 100 mM NaCl, excitation 295 nm, isolated CW
T1 construct: The CW domain (aa 417–475) of MORC4 was cloned into a pGEX 6p-1 vector; GST (N, cleaved yes); made in house; host or cells: E. coli Rosetta2 (DE3) pLysS or BL21 (DE3) RIL
T1 sequence (Q8TE76 417-475): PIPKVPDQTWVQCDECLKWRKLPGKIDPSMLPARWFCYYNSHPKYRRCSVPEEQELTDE
Procedure: Spectra were recorded at 25 °C on a Fluoromax-3 spectrofluorometer (HORIBA). The samples containing 0.5–1 µM wild-type or mutated ATPaseCW or CW in 20 mM Tris pH 6.8, 100 mM NaCl, 2 mM DTT buffer and progressively increasing concentrations of the histone peptides were excited at 295 nm. Emission spectra were recorded between 320 and 360 nm with a 0.5 nm step size and a 0.5 s integration time and averaged over three scans. The Kd values were determined using a nonlinear least-squares analysis and the equation:1 ΔI=ΔImaxL+P+Kd−L+P+Kd^2−4PL/2P where [L] is the concentration of the histone peptide, [P] is the concentration of the protein, ΔI is the observed change of signal intensity, and ΔImax is the difference in signal intensity of the free and bound states of the protein. The Kd values were averaged over three separate experiments with the error calculated as the standard deviation between the runs.

[3] = test system: NCP252; experiment: FRET, Gal4 titration into Cy3-Cy5 labeled NCP252; type: binding; conditions: for S1/2: mean of n = 3
Procedure: Histone octamers unlabeled or labeled with Cy5 at H2AK119 were prepared as previously described. NCPs were reconstituted by combining octamer with 1.25× excess DNA and performing slow salt dialysis. Free DNA was then separated from fully reconstituted NCPs by sucrose gradient purification. NCPs for fluorescence polarization assays were reconstituted from unlabeled octamer and 207 bp DNA containing the 601 Widom sequence flanked with a 30 bp linker on either side and internally labeled with Fluorescein 27 bp in from the 5′ end. Cy3-Cy5 labeled NCPs for FRET assays were reconstituted with Cy5 labeled octamer plus either 147 bp 601 Widom DNA containing a LexA transcription factor binding site at bases 8–27[34], or 252 bp DNA containing the 601 Widom sequence with a 75 bp linker at the 3′ end, a 30 bp linker at the 5’ end, and a Gal4 transcription factor binding site at bases 8–26 in the 601 Widom sequence. The 147 bp LexA-binding DNA was labeled with Cy3 on the 5′ end, and the 252 bp Gal4-binding DNA was internally labeled with Cy3 34 bp in from the 5′ end.
LexA was expressed in E. coli, separated from genomic DNA and the proteome by polyethyleneimine precipitation, and salted out with ammonium sulfate. LexA was resuspended in buffer A (20 mM potassium phosphate pH 7, 0.1 mM EDTA, 10% glycerol, 1 mM DTT) + 200 mM NaCl and purified by a linear gradient to A + 800 mM NaCl over either a cellulose phosphate or HiTrap Heparin HP column. Final LexA purification was performed on a hydroxyapatite column and dialyzed into 10 mM PIPES pH 7.0, 0.1 mM EDTA, 10% glycerol, and 200 mM NaCl for storage at −80 °C. The His-tagged DNA-binding domain (aa 1–147) of Gal4 was expressed in E. coli and purified from lysate by a linear gradient of buffer B (25 mM Tris pH 7.5, 200 mM NaCl, 0.2% Tween 20, 20 µM zinc acetate, 1 mM dithiothreitol, and 1 mM PMSF) + 10 mM imidazole to B + 200 mM imidazole over a Nickel-NTA column. Gal4 (1–147) was then further purified by a linear gradient of buffer C (25 mM Tris pH 7.5, 20 µM zinc acetate, 1 mM dithiothreitol, and 1 mM PMSF) + 200 mM NaCl to C + 800 mM NaCl over a Tosoh cation exchange column. Purified Gal4 (1–147) was then dialyzed into 10 mM HEPES pH 7.5, 200 mM NaCl, 10% glycerol, 20 µM zinc acetate, 1 mM DTT, and 1 mM PMSF for storage at −80 °C.
Cy3-Cy5 NCP FRET efficiency measurements were carried out on a Horiba Scientific Fluoromax 4. Samples were excited at 510 and 610 nm and the photoluminescence spectra were collected from 530 to 750 nm and 630 to 750 nm for donor and acceptor excitations, respectively. Each wavelength was integrated for one second, and the excitation and emission slit width were set to 5 nm with 2 nm emission wavelength steps. FRET measurements were computed through the (ratio)A method. LexA titrations were carried out in 20 mM Tris pH 7.5, 75 mM NaCl, 10% glycerol, 0.00625% Tween 20 buffer with 5 nM 147 bp Cy3-Cy5 NCPs mixed in 20 µL reaction volumes and allowed to incubate for 5 mins at 4 °C before FRET of the sample was measured. To measure changes in accessibility of the NCP147 due to MORC4 ATPaseCW binding, LexA titrations were repeated in the presence of NCP binding saturating concentrations of MORC4 ATPaseCW. Gal4 (1–147) titrations were carried out in 10 mM Tris pH 8, 130 mM NaCl, 10% glycerol, 0.0075% Tween 20 buffer with 1 nM 252 bp Cy3-Cy5 nucleosomes mixed in 60 µL reaction volumes and allowed to incubate for 10 mins at room temperature before FRET of the sample was measured. […]

- effect on binding of ATPaseCW to 601 DNA ([1]; added to ATPaseCW): increases binding to 601 DNA
Compound: Nc1ncnc2c1ncn2[C@@H]1O[C@H](COP(=O)(O)OP(=O)(O)NP(=O)(O)O)[C@@H](O)[C@H]1O [AMPPNP, adenylyl-imidodiphosphate, reference compound]

- Kd ([2]; mean of n = 3): 112 nM
Compound: C[C@H](N)C(=O)N[C@@H](CCCNC(=N)N)C(=O)N[C@H](C(=O)N[C@@H](CCCC[N+](C)(C)C)C(=O)N[C@@H](CCC(N)=O)C(=O)N[C@H](C(=O)N[C@@H](C)C(=O)N[C@@H](CCCNC(=N)N)C(=O)N[C@@H](CCCCN)C(=O)N[C@@H](CO)C(=O)N[C@H](C(=O)NCC(=O)O)[C@@H](C)O)[C@@H](C)O)[C@@H](C)O [H3K4me3]

- Kd ([2]; mean ± S.D. of n = 3): 2660 nM
Compound: C[C@H](N)C(=O)N[C@@H](CCCNC(=N)N)C(=O)N[C@H](C(=O)N[C@@H](CCCCN)C(=O)N[C@@H](CCC(N)=O)C(=O)N[C@H](C(=O)N[C@@H](C)C(=O)N[C@@H](CCCNC(=N)N)C(=O)N[C@@H](CCCCN)C(=O)N[C@@H](CO)C(=O)N[C@H](C(=O)NCC(=O)O)[C@@H](C)O)[C@@H](C)O)[C@@H](C)O [H3]

- higher binding affinity to H3K4me3 than other readers ([2]; MORC4 CW vs other H3K4me3 readers (compared with ref [21],[22])): 7–10 fold
- binding to 601 DNA [1]: indicating the direct interaction
Compound: CW: CW domain (aa 417–475) of MORC4 (PIPKVPDQTWVQCDECLKWRKLPGKIDPSMLPARWFCYYNSHPKYRRCSVPEEQELTDE; left off: GST, end not stated, cleaved)

Compound: CWKRR: triple mutant of the MORC4 CW domain, K460A/R462A/R463A (PIPKVPDQTWVQCDECLKWRKLPGKIDPSMLPARWFCYYNSHPAYAACSVPEEQELTDE; left off: GST, end not stated, cleaved)
- binding to 601 DNA [1]: did not observe the 601 DNA band shift even at the DNA to CWKRR molar ratio of 1 to 200

Compound: Gal4: DNA-binding domain (aa 1–147) of transcription factor Gal4
- S1/2 ([3]; FRET efficiency reduced by 50%, without MORC4, 1 nM NCP252, pH 8, 130 mM NaCl, room temperature, 10 min): 20 ± 4 nM and 20 nM
- decrease in ability to bind NCP252 ([3]; MORC4 ATPaseCW with ATP vs no MORC4): ~ 5 fold
- decrease in ability to bind NCP252 ([3]; MORC4 ATPaseCW without ATP vs no MORC4): 2 fold
- S1/2 ([3]; in presence of MORC4 ATPaseCW with 0.3 mM ATP): 100 ± 7 nM and 100 nM
- S1/2 ([3]; in presence of MORC4 ATPaseCW, without ATP): 40 ± 5 nM and 40 nM

From paper PMC7596504, “Molecular mechanism of the MORC4 ATPase activation” (Nature Communications, 2020)
